Measurements from patent US6472348B1, “Pyridone derivatives and herbicides” (Kumiai Chemical Industry Co., Ltd., priority 1996, dated 2002).

Columns and labels:
Assay type in all cases: in vivo
monochoria (Mo) = assay: Test Example 1: herbicidal effects by paddy field soil treatment; conditions: 100 g of the active ingredient per 10 ares, 21st day after the application, index 0-5 of Table 47;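 further: grade of growth control; 5 = at least 90%; 4 = 70 to 90%; 3 = 50 to 70%; 2 = 30 to 50%; 1 = 10 to 30%; 0 = under 10%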
Procedure, shortened: (§1)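 Flooded paddy-soil pots (3 cm water) sown after puddling/leveling; treatment 100 g a.i./10 ares; greenhouse culture; herbicidal effect rated visually on a scoring scale at 21 d post-application.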

barnyardgrass (Ec) [1] = assay: as above; conditions: 100 g of the active ingredient per 10 ares, 21st day after the application, index 0-5 of Table 47
Procedure, shortened: as §1

bulrush (Sc) = assay: as above; conditions: 100 g of the active ingredient per 10 ares, 21st day after the application, index 0-5 of Table 47;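 further: grade of growth control; 5 = at least 90%; 4 = 70 to 90%; 3 = 50 to 70%; 2 = 30 to 50%; 1 = 10 to 30%; 0 = under 10%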
Procedure, shortened: as §1

cotton (Go) = assay: Test Example 4: crop plant selectivity by upland field soil treatment (cotton), phytotoxicity; set-up: scale not given here; conditions: dose 6.3 g ai/10 a, evaluated 21st day after application
Protocol: (§2) (Test on Crop Plant Selectivity by Upland Field Soil Treatment)
(§3) In a plastic pot (surface area: 600 cm^2) filled with sand, cotton (Go), Diaitaria ciliaris (Di), green foxtail (Se), pale smartweed (Po), slender amaranth (Am), common lambsquarters (Ch) and China jute (Ab) were sown and covered with soil. […] The plants were then cultured in a green house, and the evaluation of the herbicidal effects and phytotoxicity was conducted on the 21st day after the application in accordance with the standards as identified in Table 47. Symbol—represents “not tested”.

pale smartweed (Po) [2] = assay: Test Example 3: herbicidal effects by upland field foliage treatment; set-up: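 grade of growth control; 5 = at least 90%; 4 = 70 to 90%; 3 = 50 to 70%; 2 = 30 to 50%; 1 = 10 to 30%; 0 = under 10%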; conditions: 100 g of the active ingredient per 10 ares, evaluated on the 14th day after treatment
Procedure, shortened: (§4)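 Post-emergence upland foliage test. Seedlings grown 2 weeks under glass in pots (120 cm^2) of sand, seed topped with soil; treated on the foliage, kept in greenhouse, then assessed at day 14 using rating standards.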

slender amaranth (Am) [3] = assay: as above; set-up: scale not given here; conditions: 100 g of the active ingredient per 10 ares, evaluated on the 14th day after treatment
Procedure, shortened: as §4

[4] = test system: common lambsquarters (Ch); assay: as above; set-up: scale not given here; conditions: 100 g of the active ingredient per 10 ares, evaluated on the 14th day after treatment
Procedure, shortened: as §4

barnyardgrass (Ec) [5] = assay: as above; set-up: scale not given here; conditions: 100 g of the active ingredient per 10 ares, evaluated on the 14th day after treatment
Procedure, shortened: as §4

Diaitaria ciliaris (Di) = assay: as above; set-up: scale not given here; conditions: 100 g of the active ingredient per 10 ares, evaluated on the 14th day after treatment
Procedure, shortened: as §4

rice flatsedge (Ci) [6] = assay: as above; set-up: scale not given here; conditions: 100 g of the active ingredient per 10 ares, evaluated on the 14th day after treatment
Procedure, shortened: as §4

pale smartweed (Po) [7] = assay: Test Example 2: herbicidal effects by upland field soil treatment; conditions: 100 g of the active ingredient per 10 ares, 21st day after the application, index 0-5 of Table 47;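 further: grade of growth control; 5 = at least 90%; 4 = 70 to 90%; 3 = 50 to 70%; 2 = 30 to 50%; 1 = 10 to 30%; 0 = under 10%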
Source text: (§5) (Test on Herbicidal Effects by Upland Field Soil Treatment)

slender amaranth (Am) [8] = assay: as above; conditions: 100 g of the active ingredient per 10 ares, 21st day after the application, index 0-5 of Table 47
Source text: as §5

[9] = test system: common lambsquarters (Ch); assay: as above; conditions: 100 g of the active ingredient per 10 ares, 21st day after the application, index 0-5 of Table 47
Source text: as §5

barnyardgrass (Ec) [10] = assay: as above; conditions: 100 g of the active ingredient per 10 ares, 21st day after the application, index 0-5 of Table 47
Source text: as §5

Digitaria ciliaris (Di) = assay: as above; conditions: 100 g of the active ingredient per 10 ares, 21st day after the application, index 0-5 of Table 47;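 further: grade of growth control; 5 = at least 90%; 4 = 70 to 90%; 3 = 50 to 70%; 2 = 30 to 50%; 1 = 10 to 30%; 0 = under 10%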
Source text: as §5

rice flatsedge (Ci) [11] = assay: as above; conditions: 100 g of the active ingredient per 10 ares, 21st day after the application, index 0-5 of Table 47
Source text: as §5

pale smartweed (Po) [12] = assay: Test Example 6: crop plant selectivity by upland field soil treatment (soybean), herbicidal effects; set-up: scale not given here; conditions: dose 6.3 g ai/10a, 21st day after application
Protocol: as §2
(§6) In a plastic pot (surface area: 600 cm^2) filled with sand, soybean (Gl), Diaitaria ciliaris (Di), green foxtail (Se), Johnsongrass (So), pale smartweed (Po), slender amaranth (Am), common lambsquarters (Ch) and China jute (Ab) were sown and covered with soil. […] The plants were then cultured in a green house, and the evaluation of the herbicidal effects and phytotoxicity was conducted on the 21st day after the application in accordance with the standards as identified in Table 47. Symbol—represents “not tested”.

slender amaranth (Am) [13] = assay: as above; set-up: scale not given here; conditions: dose 6.3 g ai/10a, 21st day after application
Protocol: as §2, §6

[14] = test system: common lambsquarters (Ch); assay: as above; set-up: scale not given here; conditions: dose 6.3 g ai/10a, 21st day after application
Protocol: as §2, §6

green foxtail (Se) [15] = assay: as above; set-up: scale not given here; conditions: dose 6.3 g ai/10a, 21st day after application
Protocol: as §2, §6

China jute (Ab) [16] = assay: as above; set-up: scale not given here; conditions: dose 6.3 g ai/10a, 21st day after application
Protocol: as §2, §6

soybean (Gl) = assay: Test Example 6: crop plant selectivity by upland field soil treatment (soybean), phytotoxicity; set-up: scale not given here; conditions: dose 6.3 g ai/10a, 21st day after application
Protocol: as §2, §6

pale smartweed (Po) [17] = assay: Test Example 7: crop plant selectivity by upland field soil treatment (corn), herbicidal effects; set-up: scale not given here; conditions: dose 6.3 g ai/10a, 21st day after application
Protocol: as §2
(§7) In a plastic pot (surface area: 600 cm^2) filled with sand, corn (Ze), green foxtail (Se), pale smartweed (Po), slender amaranth (Am), common lambsquarters (Ch) and China jute (Ab) were sown and covered with soil. […] The plants were then cultured in a green house, and the evaluation of the herbicidal effects and phytotoxicity was conducted on the 21st day after the application in accordance with the standards as identified in Table 47.

slender amaranth (Am) [18] = assay: as above; set-up: scale not given here; conditions: dose 6.3 g ai/10a, 21st day after application
Protocol: as §2, §7

[19] = test system: common lambsquarters (Ch); assay: as above; set-up: scale not given here; conditions: dose 6.3 g ai/10a, 21st day after application
Protocol: as §2, §7

green foxtail (Se) [20] = assay: as above; set-up: scale not given here; conditions: dose 6.3 g ai/10a, 21st day after application
Protocol: as §2, §7

China jute (Ab) [21] = assay: as above; set-up: scale not given here; conditions: dose 6.3 g ai/10a, 21st day after application
Protocol: as §2, §7

corn (Ze) = assay: Test Example 7: crop plant selectivity by upland field soil treatment (corn), phytotoxicity; set-up: scale not given here; conditions: dose 6.3 g ai/10a, 21st day after application
Protocol: as §2, §7

pale smartweed (Po) [22] = assay: Test Example 4: crop plant selectivity by upland field soil treatment (cotton), herbicidal effects; set-up: scale not given here; conditions: dose 6.3 g ai/10 a, evaluated 21st day after application
Protocol: as §2, §3

slender amaranth (Am) [23] = assay: as above; set-up: scale not given here; conditions: dose 6.3 g ai/10 a, evaluated 21st day after application
Protocol: as §2, §3

[24] = test system: common lambsquarters (Ch); assay: as above; set-up: scale not given here; conditions: dose 6.3 g ai/10 a, evaluated 21st day after application
Protocol: as §2, §3

green foxtail (Se) [25] = assay: as above; set-up: scale not given here; conditions: dose 6.3 g ai/10 a, evaluated 21st day after application
Protocol: as §2, §3

China jute (Ab) [26] = assay: as above; set-up: scale not given here; conditions: dose 6.3 g ai/10 a, evaluated 21st day after application
Protocol: as §2, §3

Compound: CCOc1cc(-c2ccc(C(F)(F)F)n(C)c2=O)c(F)cc1Cl [1-150]
- Herbicidal effects Mo (monochoria (Mo)): 5
- Herbicidal effects Ec (barnyardgrass (Ec) [1]): 5
- Herbicidal effects Sc (bulrush (Sc)): 5
- Phytotoxicity Go (cotton (Go)): 0
- Herbicidal effects Po (pale smartweed (Po) [2]): 5
- Herbicidal effects Am (slender amaranth (Am) [3]): 5
- Herbicidal effects Ch [4]: 5
- Herbicidal effects Ec (barnyardgrass (Ec) [5]): 5
- Herbicidal effects Di (Diaitaria ciliaris (Di)): 5
- Herbicidal effects Ci (rice flatsedge (Ci) [6]): 5
- Herbicidal effects Po (pale smartweed (Po) [7]): 5
- Herbicidal effects Am (slender amaranth (Am) [8]): 5
- Herbicidal effects Ch [9]: 5
- Herbicidal effects Ec (barnyardgrass (Ec) [10]): 5
- Herbicidal effects Di (Digitaria ciliaris (Di)): 5
- Herbicidal effects Ci (rice flatsedge (Ci) [11]): 5
- Herbicidal effects Po (pale smartweed (Po) [12]): 5
- Herbicidal effects Am (slender amaranth (Am) [13]): 5
- Herbicidal effects Ch [14]: 5
- Herbicidal effects Se (green foxtail (Se) [15]): 5
- Herbicidal effects Ab (China jute (Ab) [16]): 5
- Phytotoxicity Gl (soybean (Gl)): 1
- Herbicidal effects Po (pale smartweed (Po) [17]): 5
- Herbicidal effects Am (slender amaranth (Am) [18]): 5
- Herbicidal effects Ch [19]: 5
- Herbicidal effects Se (green foxtail (Se) [20]): 5
- Herbicidal effects Ab (China jute (Ab) [21]): 5
- Phytotoxicity Ze (corn (Ze)): 1
- Herbicidal effects Po (pale smartweed (Po) [22]): 5
- Herbicidal effects Am (slender amaranth (Am) [23]): 5
- Herbicidal effects Ch [24]: 5
- Herbicidal effects Se (green foxtail (Se) [25]): 5
- Herbicidal effects Ab (China jute (Ab) [26]): 5
